Where two headings read alike, the source gives them in different places.
Columns and labels:
recombinant EphB4 [1] = target: T1, recombinant EphB4 (Homo sapiens, UniProt P54760); test: biochemical
T1 sequence (P54760 563-987): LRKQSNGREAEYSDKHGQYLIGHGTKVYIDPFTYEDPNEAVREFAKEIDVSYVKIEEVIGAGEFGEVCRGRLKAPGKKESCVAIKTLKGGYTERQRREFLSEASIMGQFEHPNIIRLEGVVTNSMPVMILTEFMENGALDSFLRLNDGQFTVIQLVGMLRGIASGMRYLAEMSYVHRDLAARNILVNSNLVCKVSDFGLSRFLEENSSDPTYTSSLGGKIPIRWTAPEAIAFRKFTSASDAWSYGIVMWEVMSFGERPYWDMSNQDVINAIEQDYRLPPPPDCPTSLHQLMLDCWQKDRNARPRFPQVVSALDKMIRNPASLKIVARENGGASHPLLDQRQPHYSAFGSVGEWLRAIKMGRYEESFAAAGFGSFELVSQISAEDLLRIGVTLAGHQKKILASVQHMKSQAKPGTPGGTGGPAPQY
Description: (§1) This assay detects inhibitors of EphB4-mediated phosphorylation of a polypeptide substrate using Alphascreen™ luminescence detection technology. […] The reaction was stopped by addition of EDTA, together with streptavidin-coated donor beads which bind the biotin-substrate containing any phosphorylated tyrosine residues. Anti-phosphotyrosine antibodies present on acceptor beads bind to phosphorylated substrate, thus bringing the donor & acceptor beads into close proximity. Subsequent excitation of the donor beads at 680 nm generated singlet oxygen species that interact with a chemiluminescer on the acceptor beads, leading to light emission at 520-620 nm. The signal intensity is directly proportional to the level of substrate phosphorylation and thus inhibition is measured by a decrease in signal.
(§2) To ensure that each well contained a total of 120 nl DMSO the wells were all backfilled as required. […] The test range of compounds was 100× the required final concentration.
(§3) Assay plates were then incubated at room temperature for 1 hour.
(§4) For assays using compounds prepared via acoustic dispensing, the assay mix was adjusted such that the final assay volume of 12 ul contained the same concentration of reagent as 10 ul of assay mix used when aqueous compounds were tested.
(§5) The plates were sealed under natural lighting conditions, wrapped in aluminium foil and incubated in the dark for a further 20 hours.
(§6) The resulting assay signal was determined on the Perkin Elmer EnVision plate reader. The minimum value was subtracted from all values, and the signal plotted against compound concentration to generate IC50 data. The method used to generate the compound dilutions was recorded with the IC50 value in the database.

EphB4 = target: T2, EphB4 (Homo sapiens, UniProt P54760); test: In vitro EphB4 cell assay (EphB4 phosphorylation ELISA in EphB4-CHO cells); type: cell-based
T2 construct: to generate full-length EphB4 containing a Myc-His tag at the C-terminus; expressed in transfected cells
T2 sequence (P54760 16-987): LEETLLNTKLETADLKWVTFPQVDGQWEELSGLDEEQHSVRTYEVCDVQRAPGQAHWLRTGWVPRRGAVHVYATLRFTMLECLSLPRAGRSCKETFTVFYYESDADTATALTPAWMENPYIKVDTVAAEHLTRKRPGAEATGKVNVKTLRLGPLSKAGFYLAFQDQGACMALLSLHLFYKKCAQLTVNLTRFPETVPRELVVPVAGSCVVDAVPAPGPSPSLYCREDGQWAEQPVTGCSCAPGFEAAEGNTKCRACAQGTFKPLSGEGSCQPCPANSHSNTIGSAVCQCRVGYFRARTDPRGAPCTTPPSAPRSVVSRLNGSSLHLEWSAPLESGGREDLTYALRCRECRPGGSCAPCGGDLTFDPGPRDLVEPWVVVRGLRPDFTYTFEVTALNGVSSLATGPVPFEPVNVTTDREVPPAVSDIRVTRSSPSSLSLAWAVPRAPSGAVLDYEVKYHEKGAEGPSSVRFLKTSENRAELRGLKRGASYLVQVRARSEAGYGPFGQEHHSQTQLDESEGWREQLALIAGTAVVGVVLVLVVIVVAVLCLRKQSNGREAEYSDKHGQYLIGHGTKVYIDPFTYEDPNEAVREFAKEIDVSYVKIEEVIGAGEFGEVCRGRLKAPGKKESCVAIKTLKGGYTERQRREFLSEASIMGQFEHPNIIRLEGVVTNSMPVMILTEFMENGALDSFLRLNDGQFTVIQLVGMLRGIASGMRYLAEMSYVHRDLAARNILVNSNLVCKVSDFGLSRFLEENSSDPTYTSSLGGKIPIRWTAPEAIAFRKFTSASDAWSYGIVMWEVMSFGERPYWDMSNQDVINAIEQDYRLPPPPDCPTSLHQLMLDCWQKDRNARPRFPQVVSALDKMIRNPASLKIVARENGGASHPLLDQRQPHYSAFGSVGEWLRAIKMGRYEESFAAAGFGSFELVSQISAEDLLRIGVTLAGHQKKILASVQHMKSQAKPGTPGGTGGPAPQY
Description: The assay identifies inhibitors of cellular EphB4 by measuring a decrease in phosphorylation of EphB4 following treatment of cells with compound. The endpoint assay used a sandwich ELISA to detect EphB4 phosphorylation status. Briefly, Myc-tagged EphB4 from treated cell lysate was captured on the ELISA plate via an anti-c-Myc antibody. The phosphorylation status of captured EphB4 was then measured using a generic phosphotyrosine antibody conjugated to HRP via a colourimetric output catalysed by HRP, with level of EphB4 phosphorylation directly proportional to the colour intensity. Absorbance was measured spectrophotometrically at 450 nm.
Full length human EphB4 (Swiss-Prot Acc. No. P54760) was cloned using standard techniques from cDNA prepared from HUVEC using RT-PCR. The cDNA fragment was then sub-cloned into a pcDNA3.1 expression vector containing a Myc-His epitope tag to generate full-length EphB4 containing a Myc-His tag at the C-terminus (Invitrogen Ltd. Paisley, UK). […] CHO-K1 cells were engineered to stably express the EphB4-Myc-His construct using standard stable transfection techniques, to generate cells hereafter termed EphB4-CHO. […]
Plates were washed twice with PBS/0.05% Tween-20 and incubated with 100 μl/well cell lysate overnight at 4° C. […] The absorbances were determined at 450 nm using the Tecan SpectraFluor Plus. […]

recombinant EphB4 [2] = target: T1, recombinant EphB4; settings: read-out: EphB4 enzyme assay Mean IC50 value; Method of compound preparation: Genesis (aqueous compound preparation); * = tested once only
Description: as §1, §2, §3, §4, §5, §6

[3] = EphB4 enzyme assay Mean IC50 value, Method of compound preparation: Echo (acoustic dispensing), * = tested once only
[4] = EphB4 enzyme assay Mean IC50 value, Method of compound preparation: Genesis (aqueous compound preparation), * = tested once only

IC50 (recombinant EphB4 [1]; [3]) [nM]	IC50 (recombinant EphB4 [1]; [4]) [nM]	Compound	further results
–	116	Cc1ccc(N(C)c2ccnc(Nc3cc(N4CCOCC4)cc(N4CCOCC4)c3)n2)cn1 [Example 7a, N-(3,5-dimorpholin-4-ylphenyl)-N′-methyl-N′-(6-methylpyridin-yl)pyrimidine-2,4-diamine]	–
–	384	Cc1cnc(C)c(N(C)c2ccnc(Nc3cc(N4CCOCC4)cc(N4CCOCC4)c3)n2)c1 [Example 7c, N′-(2,5-dimethylpyridin-3-yl)-N-(3,5-dimorpholin-4-ylphenyl)-N′-methyl-pyrimidine-2,4-diamine]	–
4.37	–	COc1cnc(C)c(N(C)c2ccnc(Nc3cc(N4CCOCC4)cc(N4CCOCC4)c3)n2)c1 [Example 7d, N-(3,5-dimorpholin-4-ylphenyl)-N′-(5-methoxy-2-methyl-pyridin-3-yl)-N′-methyl-pyrimidine-2,4-diamine]	–
–	106	COc1cc(N(C)c2ccnc(Nc3cc(N4CCOCC4)cc(N4CCOCC4)c3)n2)cnc1Cl [Example 8a, N′-(6-chloro-5-methoxy-pyridin-3-yl)-N-(3,5-dimorpholin-4-ylphenyl)-N′-methyl-pyrimidine-2,4-diamine]	–
–	166	Cc1cc(N(C)c2ccnc(Nc3cc(N4CCOCC4)cc(N4CCOCC4)c3)n2)cnc1Cl [Example 8b, N′-(6-chloro-5-methyl-pyridin-3-yl)-N-(3,5-dimorpholin-4-ylphenyl)-N′-methyl-pyrimidine-2,4-diamine]	–

The remaining lines, values behind:

Compound	IC50 (recombinant EphB4 [1]; [3]) [nM]	IC50 (recombinant EphB4 [1]; [4]) [nM]	further results
CN(c1cc(Cl)ccn1)c1ccnc(Nc2cc(N3CCOCC3)cc(N3CCOCC3)c2)n1 [Example 2a, N′-(4-chloropyridin-2-yl)-N-(3,5-dimorpholin-4-ylphenyl)-N′-methyl-pyrimidine-2,4-diamine]	–	–	IC50 (recombinant EphB4 [1]; IC50 in assay A, method of compound preparation not stated): 405 nM; IC50 (EphB4): 197 nM
CN(c1cncc(Cl)c1)c1ccnc(Nc2cc(N3CCOCC3)cc(N3CCOCC3)c2)n1 [Example 3, N′-(5-chloropyridin-3-yl)-N-(3,5-dimorpholin-4-ylphenyl)-N′-methyl-pyrimidine-2,4-diamine]	11.6	49	–
CN(c1cccc(Cl)n1)c1ccnc(Nc2cc(N3CCOCC3)cc(N3CCOCC3)c2)n1 [Example 4, N′-(6-chloropyridin-2-yl)-N-(3,5-dimorpholin-4-ylphenyl)-N′-methyl-pyrimidine-2,4-diamine]	–	611	–
CN(c1ccc(Cl)nc1)c1ccnc(Nc2cc(N3CCOCC3)cc(N3CCOCC3)c2)n1 [Example 6, N4-(6-chloropyridin-3-yl)-N2-(3,5-dimorpholinophenyl)-N4-methylpyrimidine-2,4-diamine]	–	201	–
COc1cnc(Cl)c(N(C)c2ccnc(Nc3cc(N4CCOCC4)cc(N4CCOCC4)c3)n2)c1 [Example 9, N′-(2-chloro-5-methoxy-pyridin-3-yl)-N-(3,5-dimorpholin-4-ylphenyl)-N′-methyl-pyrimidine-2,4-diamine]	10.7	–	–
Cc1ccc(CO)nc1N(C)c1ccnc(Nc2cc(N3CCOCC3)cc(N3CCOCC3)c2)n1 [Example 10, (6-((2-(3,5-dimorpholinophenylamino)pyrimidin-4-yl)(methyl)amino)-5-methylpyridin-2-yl)methanol]	141	–	–
Cc1cccc(N(C)c2ccnc(Nc3cc(N4CCOCC4)cc(N4CCOCC4)c3)n2)n1 [Example 11, N-[3,5-di(morpholin-4-yl)phenyl]-N′-methyl-N′-(6-methylpyridin-2-yl)pyrimidine-2,4-diamine]	207	> 14400	–
Cc1ccc(N(C)c2ccnc(Nc3cc(N4CCOCC4)cc(N4CCOCC4)c3)n2)nc1 [Example 12, N-[3,5-di(morpholin-4-yl)phenyl]-N′-methyl-N′-(5-methylpyridin-2-yl)pyrimidine-2,4-diamine]	158	250	–
Cc1ncc(CO)cc1N(C)c1ccnc(Nc2cc(N3CCOCC3)cc(N3CCOCC3)c2)n1 [Example 13, [5-[[2-[[3,5-di(morpholin-4-yl)phenyl]amino]pyrimidin-4-yl]-methylamino]-6-methylpyridin-3-yl]methanol]	66.9	–	–
N′-(4-chloropyridin-4-yl)-N-(3,5-dimorpholin-4-ylphenyl)-N′-methyl-pyrimidine-2,4-diamine [Example 2b]	–	–	IC50 (recombinant EphB4 [2]): 207 nM
